According to ChEMBL document CHEMBL4196088, “Induction of cell killing and autophagy by amphiphilic pyrrolidine derivatives on human pancreatic cancer cells” (Eur J Med Chem, 2018):
Values belong to the compound of their own block, whether it stands above or below them.

Assays:
PANC-1 [1] = experiment: Growth inhibition of human PANC1 cells after 72 hrs by XTT assay; assay type: functional, cell-based; details: PANC-1, 72 h
BXPC-3 = experiment: Growth inhibition of human BxPC3 cells after 72 hrs by XTT assay; assay type: functional, cell-based; details: BXPC-3, 72 h
MIA PaCa-2 = experiment: Growth inhibition of human MIAPaCa2 cells after 72 hrs by MTT assay; assay type: functional, cell-based; details: MIA PaCa-2, 72 h
PK9 = experiment: Growth inhibition of human PK9 cells after 72 hrs by MTT assay; assay type: functional, cell-based; details: PK9, 72 h
PANC-1 [2] = experiment: Induction of apoptosis in human PANC1 cells assessed as accumulation at sub-G0/G1 phase at 20 uM after 24 hrs by propidium iodide staining based flow cytometry (reference value: 0.6 to 0.7%); assay type: functional
PANC-1 [3] = experiment: Induction of apoptosis in human PANC1 cells assessed as accumulation at sub-G0/G1 phase at 20 uM after 48 hrs by propidium iodide staining based flow cytometry (reference value: 0.2 to 2.9%); assay type: functional
PANC-1 [4] = experiment: Induction of apoptosis in human PANC1 cells assessed as accumulation at sub-G0/G1 phase at 20 uM after 72 hrs by propidium iodide staining based flow cytometry (reference value: 1.6 to 3.2%); assay type: functional
PANC-1 [5] = experiment: Induction of apoptosis in human PANC1 cells assessed as accumulation at sub-G0/G1 phase at 10 uM after 24 hrs by propidium iodide staining based flow cytometry (reference value: 0.6 to 0.7%); assay type: functional
PANC-1 [6] = experiment: Induction of apoptosis in human PANC1 cells assessed as accumulation at sub-G0/G1 phase at 10 uM after 48 hrs by propidium iodide staining based flow cytometry (reference value: 0.2 to 2.9%); assay type: functional
PANC-1 [7] = experiment: Induction of apoptosis in human PANC1 cells assessed as accumulation at sub-G0/G1 phase at 10 uM after 72 hrs by propidium iodide staining based flow cytometry (reference value: 1.6 to 3.2%); assay type: functional
HeLa = experiment: Growth inhibition of human HeLa cells after 72 hrs; assay type: functional, cell-based

SMILES: CCCCCCCC/C=C/CCCCCCCCOC[C@@H]1C[C@@H](O)CN1
IC50 (HeLa): 4 µM

SMILES: CCCCCCCC/C=C\CCCCCCCCOC[C@@H]1CCCN1[S+]([O-])c1ccc(C)cc1 (stereo partly drawn)
IC50 (BXPC-3): > 100 µM
IC50 (PANC-1 [1]): > 100 µM

SMILES: Cc1ccc([S+]([O-])N2CCC[C@H]2COCCCCCC/C=C/c2ccc(-c3ccccc3)cc2)cc1 (stereo partly drawn)
IC50 (BXPC-3): ≥ 100 µM
IC50 (PANC-1 [1]): ≥ 100 µM

SMILES: Cc1ccc([S+]([O-])N2CCC[C@H]2COCCCCCCCCC/C=C/c2ccc(-c3ccccc3)cc2)cc1 (stereo partly drawn)
IC50 (BXPC-3): > 100 µM
IC50 (PANC-1 [1]): > 100 µM

SMILES: CC(C)(C)OC(=O)N1C[C@H](O)C[C@H]1COCCCCCCCC/C=C/c1ccc(-c2ccccc2)cc1
IC50 (HeLa): 37.5 µM

SMILES: CC(C)(C)OC(=O)N1C[C@H](O)C[C@H]1COCCCCCCCC/C=C/c1ccc(Oc2ccccc2)cc1
IC50 (HeLa): 41 µM

SMILES: C=CCCCCCCCCCOC[C@@H]1CCCN1C(=O)OC(C)(C)C
IC50 (BXPC-3): 50 µM
IC50 (PANC-1 [1]): ≥ 100 µM
IC50 (MIA PaCa-2): 50.3 µM
IC50 (PK9): > 100 µM

SMILES: CC(C)(C)OC(=O)N1C[C@H](O)C[C@H]1COCCCCCC/C=C/c1ccc(Oc2ccccc2)cc1
IC50 (HeLa): 41 µM

SMILES: CC(C)(C)OC(=O)N1CCC[C@H]1COCCCCCCCCC/C=C/c1ccc(Oc2ccccc2)cc1
IC50 (PANC-1 [1]): > 100 µM
IC50 (MIA PaCa-2): 59.6 µM
IC50 (PK9): > 100 µM

SMILES: C=CCCCCCCOC[C@@H]1C[C@@H](O)CN1C(=O)OC(C)(C)C
IC50 (HeLa): 23 µM

SMILES: C=CCCCCCCCCCOC[C@@H]1C[C@@H](O)CN1C(=O)OC(C)(C)C
IC50 (HeLa): 39 µM

SMILES: CCCCCCCC/C=C/CCCCCCCCOC[C@@H]1C[C@@H](O)CN1C(=O)OC(C)(C)C
IC50 (HeLa): 29.5 µM

Further lines, with some results ahead:

IC50 (PANC-1 [1]): > 100 µM
SMILES: Cc1ccc([S+]([O-])N2CCC[C@H]2COCCCCCCCCC/C=C/c2ccc(Oc3ccccc3)cc2)cc1 (stereo partly drawn)

IC50 (BXPC-3): 50 µM
IC50 (PANC-1 [1]): 65 µM
SMILES: CC(=O)N1CCC[C@H]1COCCCCCC/C=C/c1ccc(-c2ccccc2)cc1

IC50 (BXPC-3): 80 µM
IC50 (PANC-1 [1]): 63.3 µM
SMILES: CC(C)(C)OC(=O)NCC(=O)N1CCC[C@H]1COCCCCCC/C=C/c1ccc(Oc2ccccc2)cc1

IC50 (BXPC-3): > 100 µM
IC50 (PANC-1 [1]): > 100 µM
SMILES: CCCCCCCC/C=C\CCCCCCCCOC[C@@H]1CCCN1C(=O)[C@@H]1CCCN1C(=O)OC(C)(C)C

IC50 (BXPC-3): 7 µM
IC50 (PANC-1 [1]): 7.3 µM
IC50 (MIA PaCa-2): 8.3 µM
SMILES: C(=C\c1ccc(-c2ccccc2)cc1)/CCCCCCCCCOC[C@@H]1CCCN1.Cl
IC50 (PK9): 5.5 µM
Activity (PANC-1 [2]): 7%
Activity (PANC-1 [3]): 2.2%
Activity (PANC-1 [4]): 11.6%
Activity (PANC-1 [5]): 1.6%
Activity (PANC-1 [6]): 1.9%
Activity (PANC-1 [7]): 8.4%

IC50 (BXPC-3): 73.3 µM
IC50 (PANC-1 [1]): 65 µM
SMILES: CC(=O)N1CCC[C@H]1COCCCCCCCCC/C=C/c1ccc(Oc2ccccc2)cc1

IC50 (BXPC-3): 60 µM
IC50 (PANC-1 [1]): 40 µM
SMILES: CC(=O)N1CCC[C@H]1COCCCCCC/C=C/c1ccc(Oc2ccccc2)cc1

IC50 (BXPC-3): > 100 µM
IC50 (PANC-1 [1]): > 100 µM
IC50 (MIA PaCa-2): 72.9 µM
SMILES: C=CCCCCCCOC[C@@H]1CCCN1
IC50 (PK9): 57.7 µM

IC50 (BXPC-3): 50 µM
IC50 (PANC-1 [1]): 60 µM
SMILES: Cc1ccc([S+]([O-])N2CCC[C@H]2COCCCCCC/C=C/c2ccc(Oc3ccccc3)cc2)cc1 (stereo partly drawn)

IC50 (BXPC-3): 66.7 µM
IC50 (PANC-1 [1]): 66.7 µM
SMILES: CC(C)(C)OC(=O)NCC(=O)N1CCC[C@H]1COCCCCCC/C=C/c1ccc(-c2ccccc2)cc1

IC50 (BXPC-3): 50 µM
IC50 (PANC-1 [1]): 56.7 µM
SMILES: C=CCCCCCCCCCOC[C@@H]1CCCN1[S+]([O-])c1ccc(C)cc1 (stereo partly drawn)

IC50 (BXPC-3): 50 µM
IC50 (PANC-1 [1]): 53.3 µM
SMILES: C=CCCCCCCOC[C@@H]1CCCN1[S+]([O-])c1ccc(C)cc1 (stereo partly drawn)

IC50 (BXPC-3): 5.7 µM
IC50 (PANC-1 [1]): 5.3 µM
IC50 (MIA PaCa-2): 2.9 µM
SMILES: C(=C\c1ccc(-c2ccccc2)cc1)/CCCCCCOC[C@@H]1CCCN1.Cl
IC50 (PK9): 3.2 µM
Activity (PANC-1 [2]): 2.3%
Activity (PANC-1 [3]): 2.1%
Activity (PANC-1 [4]): 4.3%
Activity (PANC-1 [5]): 0.9%
Activity (PANC-1 [6]): 1.6%
Activity (PANC-1 [7]): 4.7%

IC50 (BXPC-3): 63.3 µM
IC50 (PANC-1 [1]): 63.3 µM
IC50 (MIA PaCa-2): 8.5 µM
SMILES: CC(C)(C)OC(=O)N1CCC[C@H]1COCCCCCC/C=C/c1ccc(Oc2ccccc2)cc1
IC50 (PK9): 69.5 µM

IC50 (BXPC-3): 53.3 µM
IC50 (PANC-1 [1]): 56.7 µM
IC50 (MIA PaCa-2): 47.1 µM
SMILES: C=CCCCCCCOC[C@@H]1CCCN1C(=O)OC(C)(C)C
IC50 (PK9): 57.1 µM

IC50 (BXPC-3): 66.7 µM
IC50 (PANC-1 [1]): 56.7 µM
SMILES: O=CN1CCC[C@H]1COCCCCCCCCC/C=C/c1ccc(-c2ccccc2)cc1
